Columns and labels:
Format in all cases: in vivo
Plasmopara viticola = assay: Test B: grape downy mildew, spray 24 h after inoculation (disease rating, 100 = 100% disease control); settings: spray 24 h after inoculation
Outline: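 Grape seedlings were inoculated with Plasmopara viticola and held 24 h saturated at 20 °C, then sprayed to run-off with compound suspension (acetone/water with 250 ppm Trem 014; 200 ppm ≈ 500 g/ha). After 5 days at 20 °C and 24 h saturation, disease was rated from 0 to 100% control versus untreated.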

Phytophthora infestans [1] = assay: whole plant or invertebrate; settings: tomato late blight, spray the day before inoculation
Phytophthora infestans [2] = assay: whole plant or invertebrate; settings: tomato late blight, spray 17 h after inoculation
[3] = test system: Erysiphe graminis f. sp. tritici; assay: Test E: wheat powdery mildew, spray the day before inoculation (disease rating, 100 = 100% disease control); settings: spray the day before inoculation
Outline: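 Wheat seedlings sprayed to run-off with compound suspended in acetone/water 50/50 with 250 ppm Trem 014 (200 ppm equivalent to 500 g/ha); inoculated next day with Erysiphe graminis f. sp. tritici spore dust. Kept 7 days at 20° C, then rated 0–100% disease control versus controls.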

[4] = compounds without asterisk (not 40 or 10 ppm)

Compound | Test B disease rating (100 = 100% disease control, 0 = no disease control) (Plasmopara viticola; tested at 40 ppm) | Test C disease rating (100 = 100% disease control, 0 = no disease control) (Phytophthora infestans [1]; tested at 40 ppm) | Test D disease rating (100 = 100% disease control, 0 = no disease control) (Phytophthora infestans [2]; tested at 40 ppm) | Test E disease rating (100 = 100% disease control, 0 = no disease control) ([3]; tested at 40 ppm) | Test B disease rating (100 = 100% disease control, 0 = no disease control) (Plasmopara viticola; [4]) | Test C disease rating (100 = 100% disease control, 0 = no disease control) (Phytophthora infestans [1]; [4]) | Test D disease rating (100 = 100% disease control, 0 = no disease control) (Phytophthora infestans [2]; [4]) | Test E disease rating (100 = 100% disease control, 0 = no disease control) [3, 4]
Cc1cc(C(F)(F)F)nn1CC(=O)N1CCC(c2nc(C(=O)N(C)C3c4ccccc4CCC3O)cs2)CC1 (stereo not shown) [compound 194] | 0% | 98% | 74% | 0% |  |  |  | 
CC(=O)OC1CCc2ccccc2C1N(C)C(=O)c1csc(C2CCN(C(=O)Cn3nc(C(F)(F)F)cc3C)CC2)n1 (stereo not shown) [compound 195] |  |  |  |  | 47% | 99% | 88% | 0%
COc1cccc2c1CCCC2N(C)C(=O)c1csc(C2CCN(C(=O)Cn3nc(C(F)(F)F)cc3C)CC2)n1 (stereo not shown) [compound 196] | 97% | 100% | 99% | 0% |  |  |  | 
COc1ccc2c(c1)CCCC2N(C)C(=O)c1csc(C2CCN(C(=O)Cn3nc(C(F)(F)F)cc3C)CC2)n1 (stereo not shown) [compound 197] | 98% | 100% | 99% | 0% |  |  |  | 
COc1ccc2c(c1)C(N(C)C(=O)c1csc(C3CCN(C(=O)Cn4nc(C(F)(F)F)cc4C)CC3)n1)CCC2 (stereo not shown) [compound 198] | 99% | 100% | 99% | 0% |  |  |  | 
Cc1cc(C(F)(F)F)nn1CC(=O)N1CCC(c2nc(C(=O)N(C)C3CCC(C)(C)c4ccccc43)cs2)CC1 (stereo not shown) [compound 199] | 99% | 100% | 99% | 0% |  |  |  | 
Cc1cc(C(F)(F)F)nn1CC(=O)N1CCC(c2nc(C(=O)N(C)C3CCCc4cc(Cl)ccc43)cs2)CC1 (stereo not shown) [compound 201] | 98% | 100% | 99% | 0% |  |  |  | 
Cc1cc(C(F)(F)F)nn1CC(=O)N1CCC(c2cc(C(=O)N(C)[C@@H]3CCCc4ccccc43)no2)CC1 [compound 202] |  |  |  |  | 97% | 100% | 99% | 0%
Cc1cc(C(F)(F)F)nn1CC(=O)N1CCC(c2cc(C(=O)N(C)[C@@H]3CCCc4ccccc43)on2)CC1 [compound 203] |  |  |  |  | 94% | 100% | 99% | 0%
Cc1cccnc1CC(=O)N1CCC(c2nc(C(=O)N(C)[C@@H]3CCCc4ccccc43)cs2)CC1 [compound 204] |  |  |  |  | 16% | 99% | 98% | 0%

Reference: patent US8586611B2 (priority 2005, dated 2013)
